Test results published in PubChem BioAssay AID1033 (Sanford-Burnham Center for Chemical Genomics, 2008).
Active and inactive are the calls of the source. How the calls were made is not given here.

Target: Chaperone protein DnaK (Escherichia coli (strain K12)) (UniProt P0A6Y8)
Experiment: binders of DnaK substrate-binding domain, biophysical, NMR, chaperone (AID 1033)
Details: Purified DnaK SBD, NMR ligand binding

Chain of Chaperone protein DnaK (Escherichia coli (strain K12)) (P0A6Y8 whole entry, looked up, the tested form may be a part): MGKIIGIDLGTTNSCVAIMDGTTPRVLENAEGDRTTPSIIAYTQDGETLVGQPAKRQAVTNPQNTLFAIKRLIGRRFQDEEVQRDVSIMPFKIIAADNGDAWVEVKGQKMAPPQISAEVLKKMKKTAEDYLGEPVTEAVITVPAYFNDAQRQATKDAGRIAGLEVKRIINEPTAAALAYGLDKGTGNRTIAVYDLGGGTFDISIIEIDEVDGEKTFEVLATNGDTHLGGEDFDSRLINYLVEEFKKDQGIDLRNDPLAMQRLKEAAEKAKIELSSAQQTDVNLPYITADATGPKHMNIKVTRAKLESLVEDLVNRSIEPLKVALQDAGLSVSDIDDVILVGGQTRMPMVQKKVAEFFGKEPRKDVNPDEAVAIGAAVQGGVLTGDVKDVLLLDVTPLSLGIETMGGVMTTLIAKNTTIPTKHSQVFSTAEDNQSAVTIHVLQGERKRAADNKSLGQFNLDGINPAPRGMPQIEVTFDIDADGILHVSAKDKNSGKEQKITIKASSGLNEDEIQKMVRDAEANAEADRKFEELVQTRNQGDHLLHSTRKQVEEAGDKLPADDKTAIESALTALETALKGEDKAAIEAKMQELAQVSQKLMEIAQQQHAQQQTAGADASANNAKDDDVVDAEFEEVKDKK

In the case of COc1cc([C@@H]2c3cc4c(cc3[C@H](OC(C)=O)[C@H]3COC(=O)[C@@H]23)OCO4)cc(OC)c1OC, the Kd is reported as > 4 mM (inactive).

CC1CCN(C(=O)c2ccc(NS(C)(=O)=O)cc2)CC1 was tested, and the Kd was > 4 mM (inactive).

With O=c1[nH]oc2ccccc12 the Kd was > 4 mM (inactive).

O=C(Nc1ccc2c(c1)OCCO2)c1ccncc1 was tested, and the Kd was > 4 mM (inactive).

In the case of O=C1C=C(Nc2ccccc2O)c2ccccc2C1=O, the Kd is reported as > 4 mM (inactive).

Nc1ccc(NS(=O)(=O)c2ccc(N)cc2)cc1 was tested, and the Kd was > 4 mM (inactive).

c1cnc(N2CCNCC2)nc1 was tested, and the Kd was > 4 mM (inactive).

For O=C(O)c1cnc2n(c1=O)CCS2, the Kd was > 4 mM (inactive).

For O=C1CC(=O)N(c2ccccc2)C(=O)N1, the Kd was > 4 mM (inactive).

For CC1(C)Cc2c(C#N)c(N)n(-c3ccccc3)c(=O)c2CO1, the Kd was > 4 mM (inactive).

In the case of CC(=O)Nc1ccc2c(c1)CCCC2=O, the Kd is reported as > 4 mM (inactive).

With CNC(C)[C@H](O)c1ccccc1 (some centres undefined) the Kd was > 4 mM (inactive).

With CC(=O)Nc1cccc(-c2nc3ccccc3c(=O)o2)c1 the Kd was > 4 mM (inactive).

Cc1ccc(C(=O)N2CCC(C(=O)O)CC2)cc1 was tested, and the Kd was > 4 mM (inactive).

With O=C1C2CCCCC2C(=O)N1c1nccs1 (centres undefined) the Kd was > 4 mM (inactive).

In the case of CCN1CCC(NC2CCC(O)CC2)CC1 (centres undefined), the Kd is reported as > 4 mM (inactive).

In the case of Cc1n[nH]c(C)c1CN, the Kd is reported as > 4 mM (inactive).

O=C(NCc1ccccc1Br)c1ccco1 was tested, and the Kd was > 4 mM (inactive).

For Cc1nn(C)c2sc(C(=O)O)cc12, the Kd was > 4 mM (inactive).

With COc1cc2c(cc1OC)[C@@H]1C(=O)c3ccc(OC)c(CC=C(C)C)c3O[C@@H]1CO2 the Kd was > 4 mM (inactive).

With Cc1ccc(C(=O)n2cnnc2N)cc1C the Kd was > 4 mM (inactive).

In the case of CS(=O)(=O)Nc1nnc(Cc2ccccc2)s1, the Kd is reported as > 4 mM (inactive).

For NC(=O)C1CCN(c2ccc(Cl)nn2)CC1, the Kd was > 4 mM (inactive).

With CCCCCCCCCCCCCCCCCCOCC(O)CO (centres undefined) the Kd was > 4 mM (inactive).

In the case of Cc1cccc(N2CCN(C(=O)c3ccncc3)CC2)c1C, the Kd is reported as > 4 mM (inactive).

With Cc1nc2ccccc2c(=O)[nH]1 the Kd was > 4 mM (inactive).

In the case of O=S(=O)(c1cccc2cccnc12)N1CCOCC1, the Kd is reported as > 4 mM (inactive).

With CNC(=O)c1ccc([N+](=O)[O-])cc1Cl the Kd was > 4 mM (inactive).

With CCN1CCn2c1nc(N1CCOCC1)nc2=O the Kd was > 4 mM (inactive).

With C=C[C@@](C)(O)CCC1C(=C)C[C@H](OC(C)=O)C2C(C)(C)CCCC12C (some centres undefined) the Kd was > 4 mM (inactive).

For O=[N+]([O-])c1ccc(/C=N/c2ncn[nH]2)cc1, the Kd was > 4 mM (inactive).

CC(C)c1ccc2c(c1)CCC1C(C)(C(N)=O)CCCC21C (centres undefined) was tested, and the Kd was > 4 mM (inactive).

In the case of NC(=O)N1CCc2ccccc21, the Kd is reported as > 4 mM (inactive).

With O=C(CC1NCCNC1=O)Nc1ccccc1 (centres undefined) the Kd was > 4 mM (inactive).

CC(=O)Oc1cccc2ccc(=O)[nH]c12 was tested, and the Kd was > 4 mM (inactive).

With Cc1ccnc(NS(=O)(=O)c2ccccc2)n1 the Kd was > 4 mM (inactive).

With CC(C)=NNC(=O)c1ccccc1 the Kd was > 4 mM (inactive).

In the case of NC(C(=O)O)C(O)C(=O)O (centres undefined), the Kd is reported as > 4 mM (inactive).

For COC1=CC23CCCN2CCc2cc4c(cc2C3C1O)OCO4 (centres undefined), the Kd was > 4 mM (inactive).

CC(=O)Oc1c(C)c(C)c2c(c1C)CCC(C)(CCCC(C)CCCC(C)CCCC(C)C)O2 (centres undefined) was tested, and the Kd was > 4 mM (inactive).

With c1csc(-c2nn[nH]n2)c1 the Kd was > 4 mM (inactive).

With O=C(Nc1ccccc1[N+](=O)[O-])c1ccc(=O)[nH]n1 the Kd was > 4 mM (inactive).

In the case of O=C1CN(C(=O)c2ccccc2F)c2ccccc2N1, the Kd is reported as > 4 mM (inactive).

With CCOC(=O)c1cc(C)n(C)n1 the Kd was > 4 mM (inactive).

With C[C@H]1O[C@@H](O[C@H]2[C@@H](O)C[C@H](O[C@H]3[C@@H](O)C[C@H](O[C@H]4CC[C@]5(C)C6CC[C@]7(C)[C@@H](C8=CC(=O)OC8)CC[C@]7(O)C6CC[C@@H]5C4)O[C@@H]3C)O[C@@H]2C)C[C@H](O)[C@@H]1O (some centres undefined) the Kd was > 4 mM (inactive).

For COc1ccc(N/C(N)=N\c2nc(C)cc(C)n2)cc1, the Kd was > 4 mM (inactive).

With CS(=O)(=O)c1cccc(C(=O)Nc2nccs2)c1 the Kd was > 4 mM (inactive).

In the case of COc1ccc2c(c1)OC/C(=C/c1ccc(OC)c(OC)c1)C2=O, the Kd is reported as > 4 mM (inactive).

In the case of S=c1[nH]nc(-c2cccnc2)n1Cc1ccccc1, the Kd is reported as > 4 mM (inactive).

In the case of NC(=O)c1ccc(N2C(=O)C=CC2=O)cc1Cl, the Kd is reported as > 4 mM (inactive).

In the case of O=C(O)CCN1CCc2ccccc2C1c1ccncc1 (centres undefined), the Kd is reported as > 4 mM (inactive).

In the case of Cc1noc(C)c1C(=O)N1CCc2ccccc21, the Kd is reported as > 4 mM (inactive).

In the case of CC(C)/C(O)=C1/C(=O)O[C@@H](c2ccoc2)[C@]2(C)C(O)[C@@H](O)[C@@]34OC5(C)OC67CC(C)(C(O)[C@]6(O)[C@@H](O)[C@]3(O5)C12)[C@H](CC(=O)O)[C@]74C (some centres undefined), the Kd is reported as > 4 mM (inactive).

COc1cc2cc3c4cc(OC)c(OC)cc4cc[n+]3c(C)c2cc1OC was tested, and the Kd was > 4 mM (inactive).

Nc1ccccc1-n1cccn1 was tested, and the Kd was > 4 mM (inactive).

For COC(=O)C[C@H]1C(C)(C)C(=O)[C@@H]2CC3C4=CC(=O)O[C@@H](c5ccoc5)[C@]4(C)CCC3C1(C)C2=O (some centres undefined), the Kd was > 4 mM (inactive).

In the case of O=C(O)c1csc2ccccc12, the Kd is reported as > 4 mM (inactive).

Cc1noc(C)c1CSc1nc2ccccc2[nH]1 was tested, and the Kd was > 4 mM (inactive).

For O=C(Cn1cnc2ccccc2c1=O)N1CCOCC1, the Kd was > 4 mM (inactive).

COc1cc(O)c(C)c(O)c1 was tested, and the Kd was > 4 mM (inactive).

With CN1CCN(Cc2cccnc2)CC1 the Kd was > 4 mM (inactive).

For O=C(c1ccncc1)N1CCN(C(=O)c2ccco2)CC1, the Kd was > 4 mM (inactive).

With CC(=O)NC(=S)Nc1ccccc1C the Kd was > 4 mM (inactive).

For Cn1cnc2c(cnn2-c2ccccc2)c1=O, the Kd was > 4 mM (inactive).

With Cc1nnc(N2CCN(Cc3ccccc3)CC2)[nH]c1=O the Kd was > 4 mM (inactive).

O=C(O)Cc1nc(-c2ccncc2)n[nH]1 was tested, and the Kd was > 4 mM (inactive).

In the case of c1cnc(N2CCSCC2)nc1, the Kd is reported as > 4 mM (inactive).

In the case of Nc1ccc2[nH]ncc2c1, the Kd is reported as > 4 mM (inactive).

In the case of CCCCCc1c2c(cc(O)c1C(=O)O)OC(=O)c1c(cc(OC)cc1C(=O)CCCC)O2, the Kd is reported as > 4 mM (inactive).

In the case of NC(=O)c1ccccc1NC(=O)c1cccnc1, the Kd is reported as > 4 mM (inactive).

For NC(=O)C1CCN(c2nccc(C(F)(F)F)n2)CC1, the Kd was > 4 mM (inactive).

In the case of Nc1ccn(C2O[C@H](CO)[C@@H](O)[C@H]2O)c(=O)n1 (some centres undefined), the Kd is reported as > 4 mM (inactive).

With OC12C=CC(CC1)CC2 the Kd was > 4 mM (inactive).

Cc1occc1C(=O)N1CCN(S(C)(=O)=O)CC1 was tested, and the Kd was > 4 mM (inactive).

Nc1ccc(O)cn1 was tested, and the Kd was > 4 mM (inactive).

In the case of COC(=O)Cc1cccc(OC)c1, the Kd is reported as > 4 mM (inactive).

For Cc1nccc(-c2cccc(N)c2)n1, the Kd was > 4 mM (inactive).

For CN(C)Cc1nc2c([nH]1)c(=O)[nH]c(=O)n2C, the Kd was > 4 mM (inactive).

With O=C(O)c1ccc2sccc2c1 the Kd was > 4 mM (inactive).

For Cc1cc(SCCF)n2ncnc2n1, the Kd was > 4 mM (inactive).

With Cc1[nH]c2ccccc2c1CN(C)C the Kd was > 4 mM (inactive).

Cc1cc(C(F)(F)F)nn1CC(N)=O was tested, and the Kd was > 4 mM (inactive).

Clc1ccc(-c2nnc3ccccn23)cc1 was tested, and the Kd was > 4 mM (inactive).

For Cc1cc(=O)n2[nH]cnc2n1, the Kd was > 4 mM (inactive).

For NCc1ccc2c(c1)OCCO2, the Kd was > 4 mM (inactive).

Cc1c(O)c(O)cc2c1CC=C1[C@@]2(C)CC[C@@]2(C)C3C[C@](C)(C(=O)O)CC[C@]3(C)CC[C@]12C (some centres undefined) was tested, and the Kd was > 4 mM (inactive).

NC1=NC(=O)C(Cc2cccc([N+](=O)[O-])c2)S1 (centres undefined) was tested, and the Kd was > 4 mM (inactive).

With CN(C)C(=O)CSc1nc(N)cc(=O)[nH]1 the Kd was > 4 mM (inactive).

With O=C(O)CSc1nc2ccccc2c(=O)[nH]1 the Kd was > 4 mM (inactive).

In the case of Cc1ccccc1NC(=O)/C=C\C(N)=O, the Kd is reported as > 4 mM (inactive).

In the case of N#Cc1sc2nc3c(c(-c4cccnc4)c2c1N)CCC3, the Kd is reported as > 4 mM (inactive).

For COC(=O)c1sccc1S(=O)(=O)N1CCCC1, the Kd was > 4 mM (inactive).

In the case of CC1(C)N([O-])c2cc([N+](=O)[O-])ccc2[N+]1=O, the Kd is reported as > 4 mM (inactive).

For O=S1(=O)CCC(NC(=S)Nc2ccccc2)C1 (centres undefined), the Kd was > 4 mM (inactive).

In the case of C=C1C2CC[C@@]3(C)[C@H](c4ccoc4)OC(=O)C[C@]13O[C@H]1CC(=O)C(C)(C)[C@H](C(O)C(=O)OC)[C@@]21C (some centres undefined), the Kd is reported as > 4 mM (inactive).

For OC12CC3CC(CC(C3)C1)C2, the Kd was > 4 mM (inactive).

For Cc1cc(C(=O)NCc2cccnc2)cs1, the Kd was > 4 mM (inactive).

With COc1ccc(C)cc1S(=O)(=O)N1CCCCC1 the Kd was > 4 mM (inactive).

In the case of OC[C@@H](O)[C@@H](O[C@@H]1O[C@H](CO)[C@@H](O)[C@H](O)[C@H]1O)[C@H](O)[C@@H](O)CO, the Kd is reported as > 4 mM (inactive).

With Nc1cncc(C(=O)O)c1 the Kd was > 4 mM (inactive).

In the case of NC(=O)CSc1ccccn1, the Kd is reported as > 4 mM (inactive).

OCc1ccccc1N1CCOCC1 was tested, and the Kd was > 4 mM (inactive).

For CC(=O)Nc1ccc2c(c1)C(=O)N(C1CCCCC1)C2=O, the Kd was > 4 mM (inactive).

With COc1c(O)cc(O)cc1O the Kd was > 4 mM (inactive).

In the case of CC(=O)OC/C=C(\C)CC/C=C(\C)CC/C=C(\C)CC/C=C(\C)CC/C=C(\C)CC/C=C(\C)CC/C=C(\C)CC/C=C(\C)CCC=C(C)C, the Kd is reported as > 4 mM (inactive).

In the case of O=C1CC(c2c[nH]c3ccccc23)C(=O)N1 (centres undefined), the Kd is reported as > 4 mM (inactive).

In the case of COc1ccc(S(=O)(=O)N2CCOCC2)cc1C(C)C, the Kd is reported as > 4 mM (inactive).

O=C1CCC(c2cccs2)=NN1 was tested, and the Kd was > 4 mM (inactive).

For C[C@H]1C[C@@H](O)[C@]2(O)[C@@]13CC(=O)OC[C@@]2(C)[C@](C)(O)C(=O)C3, the Kd was > 4 mM (inactive).

In the case of COC(=O)c1c(SC)nc(-c2ccccc2)[nH]c1=O, the Kd is reported as > 4 mM (inactive).

For CC(=O)O[C@H]1C[C@@H](OC(C)=O)C(C)(C)C2CC(=O)[C@]3(C)C(CC[C@@]4(C)[C@H](C(=O)O)OC(=O)C5OC543)[C@]21C (some centres undefined), the Kd was > 4 mM (inactive).

CC12CN(CC#N)CC(C)(CN(CC#N)C1)C2=O was tested, and the Kd was > 4 mM (inactive).

In the case of NC(=O)CN1CC(c2ccccc2)CC1=O (centres undefined), the Kd is reported as > 4 mM (inactive).

In the case of Cc1cc(C)nc(/N=C(/N)N2CCOCC2)n1, the Kd is reported as > 4 mM (inactive).
